According to PubChem BioAssay (NCI):
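Compound exposure: 48 hours, 5 concentrations, 96-well plates. Definition used: TGI = concentration required for complete inhibition of growth.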

Experiments:
Assay in all cases: growth of human tumour cells (NCI), 48 h
786-0 renal = tested on: 786-0 renal
A549 NSCLC = tested on: A549 NSCLC
ACHN renal = tested on: ACHN renal
BT-549 breast = tested on: BT-549 breast
CAKI-1 renal = tested on: CAKI-1 renal
CCRF-CEM leukemia = tested on: CCRF-CEM leukemia
COLO 205 colon = tested on: COLO 205 colon
DU-145 prostate = tested on: DU-145 prostate
EKVX NSCLC = tested on: EKVX NSCLC
HCC-2998 colon = tested on: HCC-2998 colon
HCT-116 colon = tested on: HCT-116 colon
HCT-15 colon = tested on: HCT-15 colon
HL-60(TB) leukemia = tested on: HL-60(TB) leukemia
HOP-62 NSCLC = tested on: HOP-62 NSCLC
HOP-92 NSCLC = tested on: HOP-92 NSCLC
HS 578T breast = tested on: HS 578T breast
HT29 colon = tested on: HT29 colon
IGROV1 ovarian = tested on: IGROV1 ovarian
K-562 leukemia = tested on: K-562 leukemia
KM12 colon = tested on: KM12 colon
LOX IMVI melanoma = tested on: LOX IMVI melanoma
M14 melanoma = tested on: M14 melanoma
MALME-3M melanoma = tested on: MALME-3M melanoma
MCF7 breast = tested on: MCF7 breast
MDA-MB-231 breast = tested on: MDA-MB-231 breast
MDA-MB-435 = tested on: MDA-MB-435
MDA-N = tested on: MDA-N
MOLT-4 leukemia = tested on: MOLT-4 leukemia
NCI-H226 lung = tested on: NCI-H226 lung
NCI-H23 lung = tested on: NCI-H23 lung
NCI-H460 lung = tested on: NCI-H460 lung
NCI-H522 lung = tested on: NCI-H522 lung
NCI/ADR-RES ovarian = tested on: NCI/ADR-RES ovarian
OVCAR-3 ovarian = tested on: OVCAR-3 ovarian
OVCAR-4 ovarian = tested on: OVCAR-4 ovarian
OVCAR-5 ovarian = tested on: OVCAR-5 ovarian
OVCAR-8 ovarian = tested on: OVCAR-8 ovarian
PC-3 prostate = tested on: PC-3 prostate
RXF 393 renal = tested on: RXF 393 renal
SF-268 CNS = tested on: SF-268 CNS
SF-295 CNS = tested on: SF-295 CNS
SF-539 CNS = tested on: SF-539 CNS
SK-MEL-2 melanoma = tested on: SK-MEL-2 melanoma
SK-MEL-28 melanoma = tested on: SK-MEL-28 melanoma
SK-MEL-5 melanoma = tested on: SK-MEL-5 melanoma
SK-OV-3 ovarian = tested on: SK-OV-3 ovarian
SN12C renal = tested on: SN12C renal
SNB-19 CNS = tested on: SNB-19 CNS
SNB-75 CNS = tested on: SNB-75 CNS
SR leukemia = tested on: SR leukemia
SW-620 colon = tested on: SW-620 colon
T-47D breast = tested on: T-47D breast
TK-10 renal = tested on: TK-10 renal
U251 CNS = tested on: U251 CNS
UACC-257 melanoma = tested on: UACC-257 melanoma
UACC-62 melanoma = tested on: UACC-62 melanoma
UO-31 renal = tested on: UO-31 renal
A498 renal = tested on: A498 renal
RPMI-8226 leukemia = tested on: RPMI-8226 leukemia

Q: For `O=C1CS(=O)(=O)C(c2cccc(Oc3ccccc3)c2)N1c1ccc(Cl)cc1` (configuration not stated), which TGI (786-0 renal) is on record?
A: Its TGI is 36.5 µM.

Q: And the TGI (A549 NSCLC)?
A: The TGI was greater than 100 µM.

Q: And the TGI (ACHN renal)?
A: Its TGI is 60.5 µM.

Q: What about the TGI (BT-549 breast) of the same compound?
A: The TGI was 90.1 µM.

Q: What about the TGI (CAKI-1 renal) of the same compound?
A: Its TGI is 64.8 µM.

Q: And the TGI (CCRF-CEM leukemia)?
A: Its TGI is greater than 100 µM.

Q: And the TGI (COLO 205 colon)?
A: The TGI was 35.5 µM.

Q: And the TGI (DU-145 prostate)?
A: The TGI was greater than 100 µM.

Q: And the TGI (EKVX NSCLC)?
A: Its TGI is 51.3 µM.

Q: What about the TGI (HCC-2998 colon) of the same compound?
A: The TGI was 20.8 µM.

Q: What about the TGI (HCT-116 colon) of the same compound?
A: Its TGI is 22.6 µM.

Q: And the TGI (HCT-15 colon)?
A: Its TGI is greater than 100 µM.

Q: What about the TGI (HL-60(TB) leukemia) of the same compound?
A: The TGI was greater than 100 µM.

Q: And the TGI (HOP-62 NSCLC)?
A: Its TGI is greater than 100 µM.

Q: What about the TGI (HOP-92 NSCLC) of the same compound?
A: The TGI was 23.8 µM.

Q: And the TGI (HS 578T breast)?
A: Its TGI is greater than 100 µM.

Q: What about the TGI (HT29 colon) of the same compound?
A: Its TGI is greater than 100 µM.

Q: And the TGI (IGROV1 ovarian)?
A: The TGI was 39 µM.

Q: What about the TGI (K-562 leukemia) of the same compound?
A: Its TGI is 63 µM.

Q: And the TGI (KM12 colon)?
A: Its TGI is greater than 100 µM.

Q: What about the TGI (LOX IMVI melanoma) of the same compound?
A: The TGI was 29.1 µM.

Q: What about the TGI (M14 melanoma) of the same compound?
A: Its TGI is 76.2 µM.

Q: And the TGI (MALME-3M melanoma)?
A: Its TGI is 73.2 µM.

Q: And the TGI (MCF7 breast)?
A: Its TGI is 31.9 µM.

Q: What about the TGI (MDA-MB-231 breast) of the same compound?
A: Its TGI is greater than 100 µM.

Q: What about the TGI (MDA-MB-435) of the same compound?
A: Its TGI is 73.4 µM.

Q: And the TGI (MDA-N)?
A: The TGI was 53 µM.

Q: And the TGI (MOLT-4 leukemia)?
A: Its TGI is 62.7 µM.

Q: What about the TGI (NCI-H226 lung) of the same compound?
A: Its TGI is 68.3 µM.

Q: And the TGI (NCI-H23 lung)?
A: Its TGI is greater than 100 µM.

Q: What about the TGI (NCI-H460 lung) of the same compound?
A: The TGI was 35.8 µM.

Q: And the TGI (NCI-H522 lung)?
A: Its TGI is 68.9 µM.

Q: What about the TGI (NCI/ADR-RES ovarian) of the same compound?
A: Its TGI is greater than 100 µM.

Q: And the TGI (OVCAR-3 ovarian)?
A: The TGI was greater than 100 µM.

Q: What about the TGI (OVCAR-4 ovarian) of the same compound?
A: Its TGI is greater than 100 µM.

Q: And the TGI (OVCAR-5 ovarian)?
A: The TGI was greater than 100 µM.

Q: What about the TGI (OVCAR-8 ovarian) of the same compound?
A: Its TGI is 47.8 µM.

Q: What about the TGI (PC-3 prostate) of the same compound?
A: Its TGI is 84.5 µM.

Q: What about the TGI (RXF 393 renal) of the same compound?
A: Its TGI is 43 µM.

Q: What about the TGI (SF-268 CNS) of the same compound?
A: The TGI was greater than 100 µM.

Q: And the TGI (SF-295 CNS)?
A: Its TGI is greater than 100 µM.

Q: What about the TGI (SF-539 CNS) of the same compound?
A: Its TGI is 39.9 µM.

Q: And the TGI (SK-MEL-2 melanoma)?
A: Its TGI is 31.9 µM.

Q: What about the TGI (SK-MEL-28 melanoma) of the same compound?
A: The TGI was greater than 100 µM.

Q: And the TGI (SK-MEL-5 melanoma)?
A: The TGI was 26.3 µM.

Q: What about the TGI (SK-OV-3 ovarian) of the same compound?
A: The TGI was greater than 100 µM.

Q: What about the TGI (SN12C renal) of the same compound?
A: The TGI was 57.7 µM.

Q: What about the TGI (SNB-19 CNS) of the same compound?
A: The TGI was greater than 100 µM.

Q: And the TGI (SNB-75 CNS)?
A: The TGI was greater than 100 µM.

Q: What about the TGI (SR leukemia) of the same compound?
A: Its TGI is 45.4 µM.

Q: And the TGI (SW-620 colon)?
A: Its TGI is greater than 100 µM.

Q: What about the TGI (T-47D breast) of the same compound?
A: Its TGI is greater than 100 µM.

Q: And the TGI (TK-10 renal)?
A: Its TGI is 61.4 µM.

Q: What about the TGI (U251 CNS) of the same compound?
A: Its TGI is 56.1 µM.

Q: And the TGI (UACC-257 melanoma)?
A: Its TGI is 44.3 µM.

Q: And the TGI (UACC-62 melanoma)?
A: Its TGI is 24.6 µM.

Q: And the TGI (UO-31 renal)?
A: The TGI was greater than 100 µM.

Q: With `Clc1ccc(CCN(CCc2ccc(Cl)c(Cl)c2)CCN2CCCC2)cc1Cl` as the compound, how does the TGI (786-0 renal) read?
A: The TGI was 3.14 µM.

Q: And the TGI (A498 renal)?
A: The TGI was 3.23 µM.

Q: What about the TGI (A549 NSCLC) of the same compound?
A: Its TGI is 3.15 µM.

Q: And the TGI (ACHN renal)?
A: The TGI was 3.2 µM.

Q: And the TGI (BT-549 breast)?
A: The TGI was 3.65 µM.

Q: And the TGI (CAKI-1 renal)?
A: The TGI was 3.02 µM.

Q: And the TGI (CCRF-CEM leukemia)?
A: The TGI was 2.73 µM.

Q: What about the TGI (COLO 205 colon) of the same compound?
A: The TGI was 3.48 µM.

Q: What about the TGI (DU-145 prostate) of the same compound?
A: Its TGI is 4.3 µM.

Q: And the TGI (EKVX NSCLC)?
A: Its TGI is 4.4 µM.

Q: And the TGI (HCC-2998 colon)?
A: The TGI was 3.19 µM.

Q: What about the TGI (HCT-15 colon) of the same compound?
A: The TGI was 3.28 µM.

Q: And the TGI (HL-60(TB) leukemia)?
A: The TGI was 3.25 µM.

Q: And the TGI (HOP-62 NSCLC)?
A: The TGI was 3.03 µM.

Q: What about the TGI (HS 578T breast) of the same compound?
A: The TGI was 4.47 µM.

Q: What about the TGI (HT29 colon) of the same compound?
A: Its TGI is 3.41 µM.

Q: What about the TGI (IGROV1 ovarian) of the same compound?
A: The TGI was 2.93 µM.

Q: What about the TGI (KM12 colon) of the same compound?
A: Its TGI is 3.04 µM.

Q: And the TGI (LOX IMVI melanoma)?
A: Its TGI is 2.95 µM.

Q: What about the TGI (M14 melanoma) of the same compound?
A: Its TGI is 3.1 µM.

Q: What about the TGI (MALME-3M melanoma) of the same compound?
A: Its TGI is 3.5 µM.

Q: What about the TGI (MCF7 breast) of the same compound?
A: The TGI was 2.88 µM.

Q: What about the TGI (MDA-MB-231 breast) of the same compound?
A: Its TGI is 2.91 µM.

Q: What about the TGI (MDA-MB-435) of the same compound?
A: The TGI was 2.75 µM.

Q: What about the TGI (MDA-N) of the same compound?
A: The TGI was 3.32 µM.

Q: What about the TGI (NCI-H226 lung) of the same compound?
A: Its TGI is 4.07 µM.

Q: What about the TGI (NCI-H23 lung) of the same compound?
A: Its TGI is 3.42 µM.

Q: And the TGI (NCI-H460 lung)?
A: Its TGI is 3.34 µM.

Q: What about the TGI (NCI-H522 lung) of the same compound?
A: Its TGI is 3.2 µM.

Q: And the TGI (NCI/ADR-RES ovarian)?
A: Its TGI is 3.39 µM.

Q: And the TGI (OVCAR-3 ovarian)?
A: Its TGI is 3.2 µM.

Q: What about the TGI (OVCAR-4 ovarian) of the same compound?
A: The TGI was 3.66 µM.

Q: What about the TGI (OVCAR-5 ovarian) of the same compound?
A: The TGI was 3.23 µM.

Q: What about the TGI (OVCAR-8 ovarian) of the same compound?
A: Its TGI is 3.06 µM.

Q: What about the TGI (PC-3 prostate) of the same compound?
A: The TGI was 2.91 µM.

Q: And the TGI (RPMI-8226 leukemia)?
A: The TGI was 5.38 µM.

Q: What about the TGI (RXF 393 renal) of the same compound?
A: Its TGI is 3.33 µM.

Q: What about the TGI (SF-268 CNS) of the same compound?
A: The TGI was 3.73 µM.

Q: What about the TGI (SF-295 CNS) of the same compound?
A: Its TGI is 3.3 µM.

Q: And the TGI (SF-539 CNS)?
A: The TGI was 3.18 µM.

Q: And the TGI (SK-MEL-2 melanoma)?
A: Its TGI is 3.04 µM.

Q: And the TGI (SK-MEL-5 melanoma)?
A: Its TGI is 3.2 µM.

Q: What about the TGI (SK-OV-3 ovarian) of the same compound?
A: The TGI was 3.49 µM.

Q: What about the TGI (SNB-75 CNS) of the same compound?
A: Its TGI is 4.73 µM.

Q: What about the TGI (T-47D breast) of the same compound?
A: Its TGI is 12.3 µM.

Q: And the TGI (TK-10 renal)?
A: The TGI was 3.17 µM.

Q: And the TGI (U251 CNS)?
A: The TGI was 2.95 µM.

Q: What about the TGI (UACC-257 melanoma) of the same compound?
A: Its TGI is 3.37 µM.

Q: And the TGI (UACC-62 melanoma)?
A: The TGI was 3.06 µM.

Q: And the TGI (UO-31 renal)?
A: Its TGI is 3 µM.
